Biological target: T1, BGT1 (Mus musculus, UniProt P31651)
T1 construct: from tissue; host or cells: mouse liver slices
T1 sequence (P31651 1-614): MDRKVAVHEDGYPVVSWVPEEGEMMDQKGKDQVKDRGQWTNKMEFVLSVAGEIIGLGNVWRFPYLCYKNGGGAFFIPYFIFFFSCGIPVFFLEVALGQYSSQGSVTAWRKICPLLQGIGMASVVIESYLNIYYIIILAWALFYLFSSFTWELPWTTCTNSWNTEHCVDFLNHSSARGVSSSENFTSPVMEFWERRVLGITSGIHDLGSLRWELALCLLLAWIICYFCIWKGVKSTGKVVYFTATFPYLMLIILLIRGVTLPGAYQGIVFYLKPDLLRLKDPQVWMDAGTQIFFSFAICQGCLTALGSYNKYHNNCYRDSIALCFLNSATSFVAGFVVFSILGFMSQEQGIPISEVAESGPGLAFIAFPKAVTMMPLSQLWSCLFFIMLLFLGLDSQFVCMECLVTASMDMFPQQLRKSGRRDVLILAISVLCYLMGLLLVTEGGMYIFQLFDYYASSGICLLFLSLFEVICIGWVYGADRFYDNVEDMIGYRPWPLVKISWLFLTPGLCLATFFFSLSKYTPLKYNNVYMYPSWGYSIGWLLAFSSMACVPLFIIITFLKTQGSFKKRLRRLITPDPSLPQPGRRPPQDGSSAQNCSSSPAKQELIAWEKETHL
Test: liver slice media GABA with BGT1 inhibitor
Assay type: cell-based
Conditions: liver slices, 1 mM
From the text: Two liver slices were taken from each mouse.

media GABA concentrations: increases
SMILES: C[N+](C)(C)CC(=O)O [betaine]
